For orientation: IC50 means the midpoint of a concentration-inhibition curve. A high value points to lower potency.

Some results are limits rather than exact numbers.

Assay in all cases: Radiometric protein kinase assay (33PanQinase), Assay Condition A (thiol containing)
Type in all cases: biochemical

Experiment [1] addresses CDK2/CycA2 (Homo sapiens (Human), UniProt P24941). The settings on record: thiol containing (1.2 mM DTT), ATP 0.3 μM. The method, then: (§1) The IC50 profile of test compounds was determined using three protein kinases.
(§2) The compounds were provided as pre-weighed powders in vials. The compounds were dissolved to 1×10^−02M by adding DMSO. 100 μl of each of the resulting stock solutions were transferred into column 2 of four 96 well “master plates”.
(§3) Prior to testing, the 1×10^−02M stock solutions in column 2 of the master plates were subjected to a serial, semi-logarithmic dilution using 100% DMSO as a solvent. […] Column 1 and 7 were filled with 100% DMSO as controls. Subsequently, 2×10 μl from each well of the serial diluted copy plates were aliquoted with a 96 channel pipettor into two identical sets of “compound dilution plates”.
(§4) In the process, 90 μl H2O were added to each well of a set of compound dilution plates. To minimize potential precipitation, the H2O was added to each plate only a few minutes before the transfer of the compound solutions into the assay plates. Each plate was shaken thoroughly, resulting in a “compound dilution plate/10% DMSO”.
(§5) For the assays, 5 μl solution from each well of the compound dilution plates/10% DMSO were transferred into the assay plates. The final volume of the assay was 50 μl. All compounds were tested at 10 final assay concentrations in the range from 1×10^−04M to 3×10^−09M, in singlicate. The final DMSO concentration in the reaction cocktails was 1% in all cases.
(§6) All protein kinases were expressed in Sf9 insect cells or in E. coli as recombinant GST-fusion proteins or His-tagged proteins, either as full-length or enzymatically active fragments. All kinases were produced from human cDNAs and purified by either GSH-affinity chromatography or immobilized metal. Affinity tags were removed from a number of kinases during purification. The purity of the protein kinases was examined by SDS-PAGE/Coomassie staining, the identity was checked by mass spectroscopy.
(§7) A radiometric protein kinase assay (^33PanQinase® Activity Assay) was used for measuring the kinase activity of the three protein kinases. All kinase assays were performed in 96-well FlashPlates™ from PerkinElmer (Boston, Mass., USA) in a 50 μl reaction volume. The reaction cocktail was pipetted in four steps in the following order: • 20 μl of assay buffer (standard buffer) • 5 μl of ATP solution (in H2O) • 5 μl of test compound (in 10% DMSO) • 20 μl enzyme/substrate mix
(§8) The reaction cocktails were incubated at 30° C. for 60 minutes. The reaction was stopped with 50 μl of 2% (v/v) H3PO4, plates were aspirated and washed two times with 200 μl 0.9% (w/v) NaCl. Incorporation of ^33Pi was determined with a microplate scintillation counter (Microbeta, Wallac). All assays were performed with a BeckmanCoulter/SAGIAN™ Core System.
(§9) The median value of the counts in column 1 (n=8) of each assay plate was defined as “low control”. This value reflects unspecific binding of radioactivity to the plate in the absence of a protein kinase but in the presence of the substrate. The median value of the counts in column 7 of each assay plate (n=8) was taken as the “high control”, i.e. full activity in the absence of any inhibitor. The difference between high and low control was taken as 100% activity.
(§10) As part of the data evaluation the low control value from a particular plate was subtracted from the high control value as well as from all 80 “compound values” of the corresponding plate. The residual activity (in %) for each well of a particular plate was calculated by using the following formula: Res. Activity (%)=100×[(cpm of compound−low control)/(high control−low control)]
(§11) The residual activities for each concentration and the compound IC50 values were calculated using Quattro Workflow V3.1.1 (Quattro Research GmbH, Munich, Germany). […] The fitting method used was a least-squares fit.

Experiment [2] has as its target CDK12 wt/CycK (Homo sapiens (Human), UniProt Q9NYV4). The conditions noted are these: thiol containing (1.2 mM DTT), ATP 0.3 μM. The protocol:
as §1, §2, §3, §4, §5, §6, §7, §8, §9, §10, §11

In experiment [3] the target is CDK7/CycH/MAT1 (Homo sapiens (Human), UniProt P50613). The settings on record: thiol containing (1.2 mM DTT), ATP 3.0 μM. The method, then:
as §1, §2, §3, §4, §5, §6, §7, §8, §9, §10, §11

Sequence of CDK12 wt/CycK (Q9NYV4 whole entry): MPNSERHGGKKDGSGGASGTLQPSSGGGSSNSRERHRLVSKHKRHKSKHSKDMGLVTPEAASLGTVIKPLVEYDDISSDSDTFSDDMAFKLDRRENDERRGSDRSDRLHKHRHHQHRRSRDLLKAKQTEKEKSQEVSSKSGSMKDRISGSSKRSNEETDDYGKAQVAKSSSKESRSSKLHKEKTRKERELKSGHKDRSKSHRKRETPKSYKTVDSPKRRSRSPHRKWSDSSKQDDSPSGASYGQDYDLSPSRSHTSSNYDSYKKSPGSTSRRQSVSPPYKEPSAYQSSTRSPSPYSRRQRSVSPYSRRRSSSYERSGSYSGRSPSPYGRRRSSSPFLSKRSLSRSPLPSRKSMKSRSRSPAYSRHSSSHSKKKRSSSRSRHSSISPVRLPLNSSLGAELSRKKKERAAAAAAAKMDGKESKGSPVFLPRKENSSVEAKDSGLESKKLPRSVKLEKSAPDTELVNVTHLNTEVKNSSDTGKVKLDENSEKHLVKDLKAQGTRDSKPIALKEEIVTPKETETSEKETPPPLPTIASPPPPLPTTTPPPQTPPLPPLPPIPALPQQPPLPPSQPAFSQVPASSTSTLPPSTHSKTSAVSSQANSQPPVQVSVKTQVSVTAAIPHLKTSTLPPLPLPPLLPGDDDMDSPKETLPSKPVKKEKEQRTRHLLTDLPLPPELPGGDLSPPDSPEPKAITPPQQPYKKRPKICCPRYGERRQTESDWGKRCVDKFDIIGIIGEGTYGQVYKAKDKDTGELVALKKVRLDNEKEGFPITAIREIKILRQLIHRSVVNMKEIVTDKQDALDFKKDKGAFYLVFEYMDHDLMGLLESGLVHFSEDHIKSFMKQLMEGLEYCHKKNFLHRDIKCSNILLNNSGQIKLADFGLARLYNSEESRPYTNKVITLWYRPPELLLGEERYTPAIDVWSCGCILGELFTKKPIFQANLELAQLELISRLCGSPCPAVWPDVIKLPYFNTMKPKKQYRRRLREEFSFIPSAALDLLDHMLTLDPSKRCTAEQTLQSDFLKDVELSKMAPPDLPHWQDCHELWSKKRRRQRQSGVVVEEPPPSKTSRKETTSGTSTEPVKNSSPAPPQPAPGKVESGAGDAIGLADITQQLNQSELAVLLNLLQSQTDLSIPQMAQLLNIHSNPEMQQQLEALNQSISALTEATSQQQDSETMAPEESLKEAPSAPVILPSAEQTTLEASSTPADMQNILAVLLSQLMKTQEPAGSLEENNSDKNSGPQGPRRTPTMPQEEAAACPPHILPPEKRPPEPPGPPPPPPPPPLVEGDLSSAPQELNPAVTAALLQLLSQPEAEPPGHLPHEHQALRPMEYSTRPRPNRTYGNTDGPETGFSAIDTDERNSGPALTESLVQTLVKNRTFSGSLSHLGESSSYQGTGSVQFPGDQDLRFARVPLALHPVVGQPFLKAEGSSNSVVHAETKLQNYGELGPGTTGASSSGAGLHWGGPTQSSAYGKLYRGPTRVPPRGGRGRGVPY
Sequence of CDK12 wt/CycK (O75909 whole entry partner): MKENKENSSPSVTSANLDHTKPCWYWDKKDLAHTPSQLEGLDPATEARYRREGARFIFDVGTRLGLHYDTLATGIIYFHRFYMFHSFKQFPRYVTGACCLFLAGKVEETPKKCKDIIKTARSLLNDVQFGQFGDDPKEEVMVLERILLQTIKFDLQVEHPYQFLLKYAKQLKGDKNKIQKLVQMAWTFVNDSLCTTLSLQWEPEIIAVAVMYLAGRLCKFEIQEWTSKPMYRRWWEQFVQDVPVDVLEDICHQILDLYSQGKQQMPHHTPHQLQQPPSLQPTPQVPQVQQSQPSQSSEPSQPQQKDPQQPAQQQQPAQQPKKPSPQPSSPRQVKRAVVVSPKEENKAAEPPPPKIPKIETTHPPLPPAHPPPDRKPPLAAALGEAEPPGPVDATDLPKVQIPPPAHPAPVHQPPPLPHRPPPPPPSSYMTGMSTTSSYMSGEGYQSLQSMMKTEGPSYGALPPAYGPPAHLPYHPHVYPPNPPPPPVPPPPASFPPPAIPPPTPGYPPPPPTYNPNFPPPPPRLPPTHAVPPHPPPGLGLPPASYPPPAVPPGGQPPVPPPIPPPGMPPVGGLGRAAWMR
Sequence of CDK7/CycH/MAT1 (P50613 whole entry): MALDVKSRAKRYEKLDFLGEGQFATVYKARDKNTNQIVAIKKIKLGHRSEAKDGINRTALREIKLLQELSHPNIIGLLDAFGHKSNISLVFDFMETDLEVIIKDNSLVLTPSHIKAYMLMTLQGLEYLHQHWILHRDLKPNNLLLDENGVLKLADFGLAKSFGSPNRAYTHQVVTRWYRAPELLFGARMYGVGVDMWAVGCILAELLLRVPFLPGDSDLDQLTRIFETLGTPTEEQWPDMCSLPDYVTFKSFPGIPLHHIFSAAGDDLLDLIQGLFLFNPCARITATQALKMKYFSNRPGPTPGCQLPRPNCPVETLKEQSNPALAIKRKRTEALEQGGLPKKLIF
Sequence of CDK7/CycH/MAT1 (P51946 whole entry partner): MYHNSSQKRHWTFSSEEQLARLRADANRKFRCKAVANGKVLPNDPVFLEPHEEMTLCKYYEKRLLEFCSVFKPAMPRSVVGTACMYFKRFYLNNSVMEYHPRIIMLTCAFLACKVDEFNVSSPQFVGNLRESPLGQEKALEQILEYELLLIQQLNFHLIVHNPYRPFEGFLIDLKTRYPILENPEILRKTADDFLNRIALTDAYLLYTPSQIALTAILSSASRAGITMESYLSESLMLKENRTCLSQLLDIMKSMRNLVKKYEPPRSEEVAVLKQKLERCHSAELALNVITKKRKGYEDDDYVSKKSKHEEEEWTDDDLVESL
Sequence of CDK7/CycH/MAT1 (P51948 whole entry partner): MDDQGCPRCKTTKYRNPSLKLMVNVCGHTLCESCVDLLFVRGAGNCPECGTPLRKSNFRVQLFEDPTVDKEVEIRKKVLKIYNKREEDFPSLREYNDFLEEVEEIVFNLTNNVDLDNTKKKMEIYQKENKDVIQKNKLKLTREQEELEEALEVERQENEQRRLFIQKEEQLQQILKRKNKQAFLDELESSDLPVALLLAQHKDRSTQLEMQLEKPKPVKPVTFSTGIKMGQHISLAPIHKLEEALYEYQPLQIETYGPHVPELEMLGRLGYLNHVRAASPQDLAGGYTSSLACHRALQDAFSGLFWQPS

With `CCC(=O)Nc1ccc(C(=O)N2CC[C@@H](Nc3ncc4ccc(C(=O)N(C)C)cc4n3)C2)cc1` [Example 59, (R)—N,N-dimethyl-2-((1-(4-propionamidobenzoyl)pyrrolidin-3-yl)amino)quinazoline-7-carboxamide], the values for the IC50 in experiment [1], in experiment [2] and in experiment [3] were at most 0.1 µM, at most 0.1 µM and 0.1 to 1 µM, respectively.
For the compound `C=CC(=O)Nc1ccc(C(=O)N2CCC[C@@H](Nc3ncc4cc(F)ccc4n3)C2)cc1` [Example 4, (R)-N-(4-(3-((6-fluoroquinazolin-2-yl)amino)piperidine-1-carbonyl)phenyl)acrylamide], the IC50 in experiment [1] lay within 30 to 100 µM; in experiment [2], 1 to 10 µM; in experiment [3], 30 to 100 µM.
In the case of `C=CC(=O)Nc1ccc(C(=O)N2CCC[C@@H](Nc3ncc4ccc(=O)n(C(C)C)c4n3)C2)cc1` [Example 15, (R)-N-(4-(3-((8-isopropyl-7-oxo-7,8-dihydropyrido[2,3-d]pyrimidin-2-yl)amino)piperidine-1-carbonyl)phenyl)acrylamide], the IC50 in experiment [1] lay in the range of 10 to 30 µM; in experiment [2], 1 to 10 µM; in experiment [3], 30 to 100 µM.
In experiment [2], `C=CC(=O)Nc1ccc(C(=O)N2CC[C@@H](Nc3ncc4ccccc4n3)C2)c(OC)c1` [Example 73, (R)—N-(3-methoxy-4-(3-(quinazolin-2-ylamino)pyrrolidine-1-carbonyl)phenyl)acrylamide] showed an IC50 of 0.1 to 1 µM.
For `C=CC(=O)Nc1ccc(C(=O)N2C[C@H](Nc3ncc4ccccc4n3)[C@@H](C)C2)cc1` [Example 96, N-(4-((3S,4R)-3-methyl-4-(quinazolin-2-ylamino)pyrrolidine-1-carbonyl)phenyl)acrylamide], the IC50 in experiment [1] was 30 to 100 µM; in experiment [2], 1 to 10 µM; in experiment [3] it was 10 to 30 µM.
Turning to `CCC(=O)Nc1ccc(C(=O)N2CC[C@@H](Nc3ncc4ccc(OC)cc4n3)C2)cc1` [Example 51, (R)—N-(4-(3-((7-methoxyquinazolin-2-yl)amino)pyrrolidine-1-carbonyl)phenyl)propionamide], the IC50 in experiment [1], in experiment [2] and in experiment [3] was 0.1 to 1 µM each time.
In turn, `C=CC(=O)Nc1ccc(C(=O)N2CCC[C@@H](Nc3ncc4ccccc4n3)C2)cc1` [Example 1, (R)-N-(4-(3-(quinazolin-2-ylamino)piperidine-1-carbonyl)phenyl)acrylamide] returned an IC50 in experiment [2] of 1 to 10 µM.
Consider `C#CC(=O)Nc1ccc(C(=O)N2CC[C@@H](Nc3ncc4ccccc4n3)C2)cc1` [Example 70, (R)—N-(4-(3-(quinazolin-2-ylamino)pyrrolidine-1-carbonyl)phenyl)propiolamide], for which the values for the IC50 in experiment [1] and in experiment [2] were 0.1 to 1 µM and at most 0.1 µM, respectively.
With `C=CC(=O)Nc1ccc(C(=O)N2CC[C@@H](Nc3ncc4ccccc4n3)C2)cc1OC` [Example 71, (R)—N-(2-methoxy-4-(3-(quinazolin-2-ylamino)pyrrolidine-1-carbonyl)phenyl)acrylamide], the IC50 in experiment [2] is at most 0.1 µM.
The compound `C=CC(=O)Nc1ccc(C(=O)N2CC[C@@H](Nc3ncc4ccccc4n3)C2)cn1` [Example 67, (R)—N-(5-(3-(quinazolin-2-ylamino)pyrrolidine-1-carbonyl)pyridin-2-yl)acrylamide] registered an IC50 in experiment [3] of 0.1 to 1 µM.
For `C=CC(=O)Nc1ccc(C(=O)N2CC[C@@H](Nc3ncc4cc(F)ccc4n3)C2)cc1F` [Example 69, (R)—N-(2-fluoro-4-(3-((6-fluoroquinazolin-2-yl)amino)pyrrolidine-1-carbonyl)phenyl)acrylamide], the IC50 in experiment [1] is 1 to 10 µM; in experiment [2], at most 0.1 µM.
In the same order, the values of `C=CC(=O)N1CCCc2cc(C(=O)N3CC[C@@H](Nc4ncc5ccccc5n4)C3)ccc21` [Example 79, (R)-1-(6-(3-(quinazolin-2-ylamino)pyrrolidine-1-carbonyl)-3,4-dihydroquinolin-1(2H)-yl)prop-2-en-1-one] are 1 to 10 µM and at most 0.1 µM.
As for `C=CC(=O)Nc1ccc(C(=O)N2CC[C@@H](Nc3ncc4ccc(C(=O)NC)cc4n3)C2)cc1` [Example 58, (R)-2-((1-(4-acrylamidobenzoyl)pyrrolidin-3-yl)amino)-N-methylquinazoline-7-carboxamide], in experiment [3], the half-maximal inhibitory concentration (IC50) fell in the range of 0.1 to 1 µM.

Values taken from patent US11447493B2 (Kinnate Biopharma Inc., priority 2018, dated 2022).
